Measured values published in PubChem BioAssay (NCI).
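Growth conditions: 96-well plates. Treatment: test compound, 48 hours, 5 concentrations. Analysis: linear interpolation between bracketing concentrations; unreached endpoints set to highest concentration. Abbreviation: GI50, concentration required for 50% inhibition of growth. The concentration for full growth arrest is given as TGI.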

Key:
Assay in all cases: DTP human tumour cell line panel, 48 h
RPMI-8226 leukemia = test system: RPMI-8226 leukemia
KM12 colon = test system: KM12 colon
SK-MEL-5 melanoma = test system: SK-MEL-5 melanoma
OVCAR-4 ovarian = test system: OVCAR-4 ovarian
SF-268 CNS = test system: SF-268 CNS
SK-MEL-2 melanoma = test system: SK-MEL-2 melanoma
UO-31 renal = test system: UO-31 renal
MDA-MB-435 = test system: MDA-MB-435
SW-620 colon = test system: SW-620 colon
NCI-H460 lung = test system: NCI-H460 lung

Row | Compound | GI50 (RPMI-8226 leukemia) [nM] | TGI (RPMI-8226 leukemia) [µM] | GI50 (KM12 colon) [µM] | TGI (KM12 colon) [µM] | GI50 (SK-MEL-5 melanoma) [µM] | TGI (SK-MEL-5 melanoma) [µM] | GI50 (OVCAR-4 ovarian) [µM] | TGI (OVCAR-4 ovarian) [µM] | GI50 (SF-268 CNS) [µM] | TGI (SF-268 CNS) [µM] | GI50 (SK-MEL-2 melanoma) [nM] | TGI (SK-MEL-2 melanoma) [µM] | GI50 (UO-31 renal) [nM] | TGI (UO-31 renal) [µM] | GI50 (MDA-MB-435) [nM] | TGI (MDA-MB-435) [µM] | GI50 (SW-620 colon) [µM] | TGI (SW-620 colon) [µM] | GI50 (NCI-H460 lung) [µM] | TGI (NCI-H460 lung) [µM]
1 | CN(C)CC1CCn2c(c(C3=C(c4cn(C)c5ccccc45)C(=O)NC3=O)c3ccccc32)C1 (configuration not stated) | 4890 | 11 | 4.14 | 8.26 | 3.9 | 7.49 | 4.32 | 9.3 | 3.84 | 7.97 | 3960 | 7.82 | 2690 | 5.96 | 3700 | 7.49 | 4.16 | 8.32 | 4.57 | 8.68
2 | CO[C@H]1CC[C@@]2(C)C(=CC[C@H]3[C@@H]4C[C@H](O)C[C@@]4(C)CC[C@@H]32)C1 | 3680 | 54.2 | 4.5 | 15.8 | 3.23 | 13.1 | 8.82 | 54.2 | 6.42 | 21.4 | 2740 | 6.83 | 6530 | 23.4 | 1260 | 6.89 | 3.38 | 15 | 3.56 | 13.9
3 | O=C(O)CC1(C(=O)O)CCCCC1 |  | > 100 |  | > 100 |  | > 100 |  | > 100 |  | > 100 |  | > 100 |  | > 100 |  | > 100 |  | > 100 |  | > 100
4 | COc1ccc(Nc2ccnc(NCCCNc3ccnc4cc(Cl)ccc34)n2)cc1 | 891 | 3.23 | 1.67 | 3.73 | 0.387 | 1.46 | 1.35 | 6.22 | 1.52 | 3.77 | 1610 | 3.21 | 879 | 2.18 | 243 | 0.705 | 1.07 | 2.56 | 1.27 | 2.85
5 | O=C(Nc1ccc(Br)c(Cl)c1)c1cc(F)ccc1O | 231 | 1.02 | 1.36 | 5.23 | 0.358 | 1.05 | 0.974 | > 50 | 0.996 | > 33.6 | 558 | 2.08 | 153 | 1.89 | 1010 | > 15.8 | 1.2 | 9.67 | 0.675 | > 14.8
6 | Cc1ccc2sc3c(NCCCNCCO)nc4ccccc4c3c(=O)c2c1 | 1570 | 3.38 | 1.73 | 3.21 | 1.78 | 3.25 | 1.64 | 3.12 | 1.57 | 3.2 | 1730 | 3.36 | 1280 | 2.58 | 1740 | 3.27 | 1.62 | 3.13 | 1.7 | 3.24
7 | CNC1C(O)CC(OC2C/C=C(\C)C/C(C)=C/C=C/CCC(C)CNC(=O)/C=C/C=C/C2C)OC1C (configuration not stated) |  | 0.548 |  | 1.02 |  | 1.22 |  | 0.668 |  | 1.78 |  | 2.82 |  | 5.85 |  | 0.82 |  | 0.261 |  | 0.317
8 | CCCC(=O)NNc1[nH]c(-c2ccc(OC)cc2)cc1C(=O)OCC | 16800 | 86.2 | 37.7 | > 100 | 18.5 | 33.2 | 17.1 | 32.3 | 14.6 | 31 | 4590 | 8.48 | 19900 | 37.8 | 15600 | 31.6 | 3.54 | 12.6 | 46.6 | > 100
9 | COc1ccc(-c2nc(-c3nc4cc(C)c(C)cc4[nH]3)cc3c2[nH]c2ccccc23)cc1 | 1770 | 5.16 | 3.5 | 24.9 | 2.9 | 12.6 | 6.98 | > 100 | 12.7 | > 100 | 3280 | 8.25 | 2530 | 52.5 | 3970 | > 100 | 7.54 | > 100 | 3.49 | > 100
10 | O=C(/C=C\Sc1nccc(C(F)(F)F)n1)c1ccc(Br)cc1 | 2240 | 4.63 | 38.1 | > 100 | 37.9 | > 100 | 20.4 | 45.8 | 33.2 | > 100 | > 100000 | > 100 | 18700 | 34 | 26200 | 78 | 30.5 | > 100 | > 100 | > 100
11 | CCOC(=O)c1cc2ncccc2c2ccccc12 |  | > 100 |  | > 100 |  | > 100 |  | > 100 |  | > 100 |  | > 100 |  | > 100 |  | > 100 |  |  |  | > 100
12 | COC(=O)C#Cc1ccc([N+](=O)[O-])cc1 |  | 1.48 |  | 3.9 |  | 6.18 |  | 3.5 |  | 14 |  | 7.98 |  | 2.85 |  | 5.57 |  | 3.78 |  | 38.7
13 | CN1CCN(Cc2ccc(Nc3ncc(Cl)c(Nc4ccccc4S(=O)(=O)N(C)C)n3)cc2)CC1 | 10.3 | 1.24 | 0.0244 | > 100 | 0.0759 | 0.387 | 0.072 | 0.649 | 0.0997 | 1.02 | 45.8 | 0.172 | 38.7 | 1.4 | 27.4 | 0.429 | 0.0254 | > 100 | < 0.0131 | 0.198
14 | CC1(C)C2CCC13C(=O)C1OC3(C2)C2C(=O)c3c(O)ccc(O)c3C(=O)C12 (configuration not stated) | 1270 | 6.1 | > 50.4 | > 100 | 13.4 | 41.5 | > 100 | > 100 | > 47.1 | > 100 | 26100 | > 100 | 40500 | > 100 | 34900 | > 74.5 |  |  | 36.8 | > 100
